Results on 8 compounds are retold here after ChEMBL document CHEMBL1144808 (J Med Chem, 2008).

The test system of data set [1] is NCI-H460. The data set can be described thus: Cytotoxicity against human H460 cells under hypoxic condition after 2 hrs by clonogenic assay. It is filed as functional. The note with it: NCI-H460, 2 h.
Data set [2] has as its system NCI-H460. Put plainly: Cytotoxicity against human H460 cells under normoxic condition after 2 hrs by clonogenic assay. Type of data set: functional. To be noted: NCI-H460, 2 h.
Data set [3] concerns HT-29. The data set can be described thus: Ratio of IC50 for human HT29 cells under normoxic condition to hypoxic condition by clonogenic assay. Type of data set: functional.
Data set [4] in a line: Aqueous solubility at 100 mg at pH 7.4. Type of data set: physicochemical.
Data set [5] concerns NCI-H460. Put plainly: Cytotoxicity against human H460 cells under normoxic condition after 2 hrs by Alamar blue staining assay. It is filed as functional, cell-based. The note with it: NCI-H460, 2 h. (Resazurin is reduced to fluorescent resorufin, in cell work by metabolically active cells.)
The subject of data set [6] is HT-29. Put plainly: Cytotoxicity against human HT29 cells under normoxic condition after 2 hrs by clonogenic assay. Type of data set: functional. The note with it: HT-29, 2 h.
A short description of data set [7]: Metabolic stability in mouse liver microsomes at 5 uM after 30 mins. It is filed as ADME, Microsome. The note with it: read-out: Stability. A general note: Liver microsomes are a subcellular fraction often used to study metabolism.
For data set [8], the system named is NCI-H460. The data set can be described thus: Cytotoxicity against human H460 cells under hypoxic condition after 2 hrs by Alamar blue staining assay. It is filed as functional, cell-based. The note with it: NCI-H460, 2 h.
A short description of data set [9]: Toxicity against human MIAPaCa2-RFP cells xenografted mouse. Type of data set: organism-based. (In xenograft studies the graft and the host belong to different species.)
In data set [10] the test system is Mus musculus. Put plainly: Toxicity against human MIAPaCa2 cells xenografted mouse assessed as survival time at 6 mg/kg, ip administered once daily for 5 days a week for 15 days. Type of data set: organism-based, MIA PaCa-2. Also on record: dose 6 mg/kg, route intraperitoneal. The note with it: in vivo.
Data set [11] deals with NCI-H460. The data set can be described thus: Ratio of IC50 for human H460 cells under normoxic condition to hypoxic condition by Alamar blue staining assay. Type of data set: functional.
Data set [12] relates to HT-29. Put plainly: Cytotoxicity against human HT29 cells under hypoxic condition after 2 hrs by clonogenic assay. Type of data set: functional. The note with it: HT-29, 2 h.
Data set [13] has as its system NCI-H460. Put plainly: Ratio of IC50 for human H460 cells under normoxic condition to hypoxic condition by clonogenic assay. Type of data set: functional.
In data set [14] the test system is MIA PaCa-2. The data set can be described thus: Antitumor activity against human MIAPaCa2 cells xenografted mouse assessed as tumor growth inhibition at 30 mg/kg, ip administered once daily for 5 days a week for 15 days. It is filed as functional. The note with it: MIA PaCa-2, ip, route intraperitoneal.
Data set [15] relates to Mus musculus. The data set can be described thus: Toxicity against human MIAPaCa2 cells xenografted mouse assessed as survival time at 30 mg/kg, ip administered daily once for 5 days a week for 15 days. Type of data set: organism-based, MIA PaCa-2. Also on record: dose 30 mg/kg, route intraperitoneal. The note with it: in vivo.
In data set [16] the test system is Mus musculus. Put plainly: Toxicity against human MIAPaCa2 cells xenografted mouse assessed as survival time at 200 mg/kg, ip administered weekly once for 3 weeks. Type of data set: organism-based, MIA PaCa-2. Further details: dose 200 mg/kg, route intraperitoneal. To be noted: in vivo, 504 h.
In data set [17] the test system is MIA PaCa-2. The data set can be described thus: Antitumor activity against human MIAPaCa2 cells xenografted mouse assessed as tumor growth inhibition at 200 mg/kg, ip administered weekly once for 3 weeks. Type of data set: functional. To be noted: MIA PaCa-2, ip, 504 h, route intraperitoneal.

In brackets after ≈: the same amount, converted by molar mass.

As usually defined, the IC90 is the point of the concentration-response curve where the effect stands at 90%. Low readings indicate an effect from little substance, high ones a need for much substance. The term solubility denotes the concentration that dissolves in the medium under given conditions. The low end stands for little dissolved substance, the high end for much dissolved substance. A word on the IC50: it is the concentration at which inhibition is half-maximal. Low readings indicate greater potency, high ones weaker potency. As usually defined, the inhibition in vivo is the share of the control response that was lost under treatment.

In the case of `O=[N+]([O-])c1ccc(COP(=O)(NCCBr)NCCBr)o1`, the IC90 with NCI-H460 [1] was determined as 50 nM; in the data set on NCI-H460 [2], 2000 nM; with HT-29 [6], 2000 nM; in the data set on HT-29 [12] it was 60 nM. Also, the “Ratio IC50” value is 30 with HT-29 [3], 170 in the data set with NCI-H460 [11] and 40 in the data set with NCI-H460 [13]. For the same compound, the concentration in solution in data set [4] (solubility) was 4300 µg/mL (≈ 9.88 mM). Moreover, the IC50 in the data set on NCI-H460 [5] turned out to be 14000 nM; with NCI-H460 [8], 83 nM. The remaining at 0.5 h, 5 µM in data set [7] worked out at 79%. This compound also registered an MTD in data set [9] of 20 mg/kg. Further, the Survival in the data set on Mus musculus [10] was 27 days.
With `Cn1c(COP(=O)(NCCCl)NCCCl)cnc1[N+](=O)[O-]`, the figures for the IC50 in the data set on NCI-H460 [5] and in the data set on NCI-H460 [8] were 88000 nM and 210 nM, respectively. For the same compound, in data set [7], the remaining at 0.5 h, 5 µM was 90%. In the data set with NCI-H460 [11], the “Ratio IC50” value came to 420.
The matching figures for `Cn1c([N+](=O)[O-])cnc1COP(=O)(NCCBr)NCCBr`: 46000 nM, 5700 nM, 92% and 8.
Taken in the same sequence, the figures for `CN(CCCl)P(=O)(OCc1cnc([N+](=O)[O-])n1C)N(C)CCCl` were 14000 nM, 110 nM, 15% and 130.
`Cn1c(COP(=O)(N(CCCl)CCCl)N(CCCl)CCCl)cnc1[N+](=O)[O-]`: the values for the IC50 with NCI-H460 [5] and with NCI-H460 [8] were 27000 nM and 120 nM, respectively. Also, the remaining at 0.5 h, 5 µM in data set [7] is 0%. Moreover, in the data set on NCI-H460 [11], the “Ratio IC50” value is on record as 230.
With `Cn1c(COP(=O)(NCCBr)NCCBr)cnc1[N+](=O)[O-]` [EVOFOSFAMIDE], the IC90 in the data set on NCI-H460 [1] came to 100 nM; in the data set with NCI-H460 [2], 30000 nM; in the data set with HT-29 [6], 40000 nM; with HT-29 [12], 200 nM. The “Ratio IC50” value with HT-29 [3] was 200; in the data set with NCI-H460 [11] it was 270; in the data set with NCI-H460 [13], 300. Also, the inhibition in vivo at 30 mg/kg in the data set with MIA PaCa-2 [14] is 41%. Moreover, the solubility in [4] was found to be 5900 µg/mL (≈ 13.1 mM). Moreover, the IC50 in the data set on NCI-H460 [5] turned out to be 5100 nM; in the data set on NCI-H460 [8] it was 19 nM. Also, in data set [7], the remaining at 0.5 h, 5 µM amounted to 92%. The Survival in the data set with Mus musculus [15] was determined as 28 days. In data set [9], this compound showed an MTD of 100 mg/kg.
As for `Nc1ccn([C@@H]2O[C@H](CO)[C@@H](O)C2(F)F)c(=O)n1` [GEMCITABINE], the Survival with Mus musculus [16] was determined as 42 days. Moreover, the inhibition in vivo at 200 mg/kg with MIA PaCa-2 [17] was 82%.
For `Nc1n[n+]([O-])c2ccccc2[n+]1[O-]` [TIRAPAZAMINE], the IC50 was greater than 100000 nM in the data set with NCI-H460 [5] and 11000 nM with NCI-H460 [8]. Also, the “Ratio IC50” value in the data set on NCI-H460 [11] is listed as greater than 9.
